Data as given in PubChem BioAssay (NCI).
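Dose response: 5 concentrations. Exposure: 48 h. Format: 96-well plates. Endpoint: linear interpolation; highest concentration if not reached. At the TGI there is no net growth.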

Legend:
Assay in all cases: growth of human tumour cells (NCI), 48 h
U251 CNS = test system: U251 CNS
SN12C renal = test system: SN12C renal
TK-10 renal = test system: TK-10 renal
IGROV1 ovarian = test system: IGROV1 ovarian
SK-MEL-2 melanoma = test system: SK-MEL-2 melanoma
CAKI-1 renal = test system: CAKI-1 renal
HT29 colon = test system: HT29 colon
SF-295 CNS = test system: SF-295 CNS
MCF7 breast = test system: MCF7 breast
ACHN renal = test system: ACHN renal
UACC-62 melanoma = test system: UACC-62 melanoma
SR leukemia = test system: SR leukemia
HL-60(TB) leukemia = test system: HL-60(TB) leukemia
A549 NSCLC = test system: A549 NSCLC
M14 melanoma = test system: M14 melanoma
SNB-75 CNS = test system: SNB-75 CNS
RXF 393 renal = test system: RXF 393 renal
SW-620 colon = test system: SW-620 colon
786-0 renal = test system: 786-0 renal
RPMI-8226 leukemia = test system: RPMI-8226 leukemia
SK-MEL-28 melanoma = test system: SK-MEL-28 melanoma
CCRF-CEM leukemia = test system: CCRF-CEM leukemia
MOLT-4 leukemia = test system: MOLT-4 leukemia
A498 renal = test system: A498 renal
SK-MEL-5 melanoma = test system: SK-MEL-5 melanoma
OVCAR-5 ovarian = test system: OVCAR-5 ovarian
HCT-15 colon = test system: HCT-15 colon
HCC-2998 colon = test system: HCC-2998 colon
NCI-H522 lung = test system: NCI-H522 lung
HOP-92 NSCLC = test system: HOP-92 NSCLC
EKVX NSCLC = test system: EKVX NSCLC
HCT-116 colon = test system: HCT-116 colon
SF-539 CNS = test system: SF-539 CNS
NCI-H23 lung = test system: NCI-H23 lung
BT-549 breast = test system: BT-549 breast
OVCAR-3 ovarian = test system: OVCAR-3 ovarian
T-47D breast = test system: T-47D breast
MDA-MB-231 breast = test system: MDA-MB-231 breast
SF-268 CNS = test system: SF-268 CNS
OVCAR-4 ovarian = test system: OVCAR-4 ovarian
OVCAR-8 ovarian = test system: OVCAR-8 ovarian
NCI/ADR-RES ovarian = test system: NCI/ADR-RES ovarian
UO-31 renal = test system: UO-31 renal
COLO 205 colon = test system: COLO 205 colon
UACC-257 melanoma = test system: UACC-257 melanoma
PC-3 prostate = test system: PC-3 prostate
NCI-H460 lung = test system: NCI-H460 lung
SNB-19 CNS = test system: SNB-19 CNS
HOP-62 NSCLC = test system: HOP-62 NSCLC
MDA-MB-435 = test system: MDA-MB-435
K-562 leukemia = test system: K-562 leukemia
SK-OV-3 ovarian = test system: SK-OV-3 ovarian
HS 578T breast = test system: HS 578T breast
DU-145 prostate = test system: DU-145 prostate
NCI-H226 lung = test system: NCI-H226 lung
KM12 colon = test system: KM12 colon

Measured: TGI

COc1ccc(CCNC(=O)Cc2ccccc2CCO)cc1OC
> 100 µM: U251 CNS | SN12C renal | TK-10 renal | IGROV1 ovarian | SK-MEL-2 melanoma | CAKI-1 renal | HT29 colon | SF-295 CNS | MCF7 breast | ACHN renal | UACC-62 melanoma | SR leukemia | HL-60(TB) leukemia | A549 NSCLC | M14 melanoma | SNB-75 CNS | RXF 393 renal | SW-620 colon | 786-0 renal | RPMI-8226 leukemia | SK-MEL-28 melanoma | CCRF-CEM leukemia | MOLT-4 leukemia | A498 renal | SK-MEL-5 melanoma | OVCAR-5 ovarian | HCT-15 colon | HCC-2998 colon | NCI-H522 lung | HOP-92 NSCLC | EKVX NSCLC | HCT-116 colon | SF-539 CNS | NCI-H23 lung | BT-549 breast | OVCAR-3 ovarian | T-47D breast | MDA-MB-231 breast | SF-268 CNS | OVCAR-4 ovarian | OVCAR-8 ovarian | NCI/ADR-RES ovarian | UO-31 renal | COLO 205 colon | UACC-257 melanoma | PC-3 prostate | NCI-H460 lung | SNB-19 CNS | HOP-62 NSCLC | MDA-MB-435 | K-562 leukemia | SK-OV-3 ovarian | HS 578T breast | DU-145 prostate | NCI-H226 lung | KM12 colon
